From PubChem BioAssay (NCI)
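All cell lines were grown in 96-well plates and treated with compound for 48 hours. TGI: total growth inhibition.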

Columns and labels:
Experiment in all cases: DTP human tumour cell line panel, 48 h
KM12 colon = test system: KM12 colon
DLD-1 colon = test system: DLD-1 colon
MALME-3M melanoma = test system: MALME-3M melanoma
SF-539 CNS = test system: SF-539 CNS
SF-295 CNS = test system: SF-295 CNS
HOP-62 NSCLC = test system: HOP-62 NSCLC
SK-OV-3 ovarian = test system: SK-OV-3 ovarian
OVCAR-3 ovarian = test system: OVCAR-3 ovarian
HCC-2998 colon = test system: HCC-2998 colon
A498 renal = test system: A498 renal
DMS 114 small cell lung = test system: DMS 114 small cell lung
NCI-H226 lung = test system: NCI-H226 lung
SNB-19 CNS = test system: SNB-19 CNS
HOP-18 NSCLC = test system: HOP-18 NSCLC
NCI-H522 lung = test system: NCI-H522 lung
HOP-92 NSCLC = test system: HOP-92 NSCLC
SF-268 CNS = test system: SF-268 CNS
OVCAR-8 ovarian = test system: OVCAR-8 ovarian
UO-31 renal = test system: UO-31 renal
LOX IMVI melanoma = test system: LOX IMVI melanoma
HT29 colon = test system: HT29 colon
RPMI-8226 leukemia = test system: RPMI-8226 leukemia
ACHN renal = test system: ACHN renal
SNB-75 CNS = test system: SNB-75 CNS
OVCAR-4 ovarian = test system: OVCAR-4 ovarian
LXFL 529 NSCLC = test system: LXFL 529 NSCLC
NCI-H23 lung = test system: NCI-H23 lung
SN12C renal = test system: SN12C renal
RXF-631 renal = test system: RXF-631 renal
IGROV1 ovarian = test system: IGROV1 ovarian
A549 NSCLC = test system: A549 NSCLC
UACC-257 melanoma = test system: UACC-257 melanoma
U251 CNS = test system: U251 CNS
RXF 393 renal = test system: RXF 393 renal
HL-60(TB) leukemia = test system: HL-60(TB) leukemia
OVCAR-5 ovarian = test system: OVCAR-5 ovarian
EKVX NSCLC = test system: EKVX NSCLC
M14 melanoma = test system: M14 melanoma
CCRF-CEM leukemia = test system: CCRF-CEM leukemia
M19-MEL melanoma = test system: M19-MEL melanoma
SW-620 colon = test system: SW-620 colon
XF 498 CNS = test system: XF 498 CNS
SK-MEL-28 melanoma = test system: SK-MEL-28 melanoma
CAKI-1 renal = test system: CAKI-1 renal
SNB-78 CNS = test system: SNB-78 CNS
COLO 205 colon = test system: COLO 205 colon
MOLT-4 leukemia = test system: MOLT-4 leukemia
DMS 273 small cell lung = test system: DMS 273 small cell lung
786-0 renal = test system: 786-0 renal
KM20L2 colon = test system: KM20L2 colon
NCI-H460 lung = test system: NCI-H460 lung
HCT-15 colon = test system: HCT-15 colon
HCT-116 colon = test system: HCT-116 colon
UACC-62 melanoma = test system: UACC-62 melanoma
K-562 leukemia = test system: K-562 leukemia

Measured: TGI

Cc1ccc(N(C(=O)CC(=O)NN)C(=O)c2ccccc2Cl)cc1
> 100 µM: all assays above
